Measurements reported in the supplement of paper PMC10331698.
± gives the standard deviation of the averaged measurements.

What was measured:
Test in all cases: level (log10 ratio to DMSO vehicle control); higher = higher biomarker level / cell amount than vehicle control
Details in all cases: in DMSO
[1] = compound: FC(F)(F)C(F)(F)C(F)(F)CC1CO1 [1H,1H-Heptafluorobutyl epoxide]
Experimental: (§1)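 BioMAP Diversity Plus panel of 12 human primary cell co-culture systems (3C, 4H, LPS, SAg, BT, BF4T, BE3C, CASM3C, HDF3CGF, KF3CT, MyoF, Mphg). Compounds were added 1 h before stimulation and left for 24 h (MyoF 48 h; BT 72 h for soluble read-outs or 6 d for IgG). Biomarkers were read by ELISA, cytotoxicity by SRB, PBMC viability and proliferation by Alamar Blue. Each well value was divided by the mean of 8 DMSO control wells on the same plate and log10 transformed; duplicate blinded samples were tested at 4 concentrations.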

[2] = compound: O=S(=O)(O)C(F)(F)C(F)(F)C(F)(F)C(F)(F)C(F)(F)C(F)(F)C(F)(F)C(F)(F)C(F)(F)C(F)(F)F [Sodium perfluorodecanesulfonate]
Experimental: as §1

Hexafluoroamylene glycol = compound: OCC(F)(F)C(F)(F)C(F)(F)CO [Hexafluoroamylene glycol]
Experimental: as §1

[3] = compound: O=S(=O)(Cl)C(F)(F)C(F)(F)C(F)(F)C(F)(F)C(F)(F)C(F)(F)C(F)(F)C(F)(F)F [Perfluoro-1-octanesulfonyl chloride]
Experimental: as §1

Octafluoroadipamide = compound: NC(=O)C(F)(F)C(F)(F)C(F)(F)C(F)(F)C(N)=O [Octafluoroadipamide]
Experimental: as §1

[4] = compound: O=S(=O)(O)CCC(F)(F)C(F)(F)C(F)(F)C(F)(F)C(F)(F)C(F)(F)F [6:2 Fluorotelomer sulfonic acid]
Experimental: as §1

Test System	level (log10) ([1]; 6700 nM)	level (log10) ([1]; 20000 nM)	level (log10) ([1]; 60000 nM)	level (log10) ([2]; 1500 nM)	level (log10) ([2]; 4400 nM)	level (log10) ([2]; 13000 nM)	level (log10) ([2]; 40000 nM)	level (log10) (Hexafluoroamylene glycol; 6700 nM)	level (log10) (Hexafluoroamylene glycol; 20000 nM)	level (log10) (Hexafluoroamylene glycol; 60000 nM)	level (log10) ([3]; 6700 nM)	level (log10) ([3]; 20000 nM)	level (log10) ([3]; 60000 nM)	level (log10) (Octafluoroadipamide; 6700 nM)	level (log10) (Octafluoroadipamide; 20000 nM)	level (log10) (Octafluoroadipamide; 60000 nM)	level (log10) ([4]; 6700 nM)	level (log10) ([4]; 20000 nM)	level (log10) ([4]; 60000 nM)
4H:CD106/VCAM-1	-0.0035 ± 0.033	0.0125 ± 0.073	0.007 ± 0.078	-0.018 ± 0.011	-0.0295 ± 0.005	-0.007 ± 0.0085	-0.0615 ± 0.0092	0.0165 ± 0.029	0.0075 ± 0.013	0.033 ± 0.017	-0.0025 ± 0.052	-0.0035 ± 0.023	-0.0305 ± 0.0064	0.0105 ± 0.028	0.015	0.0235 ± 0.018	-0.0415 ± 0.0078	-0.0245 ± 0.0021	-0.0625 ± 0.033
4H:SRB	0.008 ± 0.023	0.007 ± 0.0057	-0.02 ± 0.0071	-0.003 ± 0.0042	-0.004 ± 0.0071	-0.017 ± 0.0014	-0.023 ± 0.0099	-0.0055 ± 0.0035	-0.004 ± 0.0071	0.005 ± 0.02	-0.0105 ± 0.0078	0 ± 0.014	-0.0495 ± 0.061	-0.0065 ± 0.022	-0.001 ± 0.025	-0.003 ± 0.013	-0.0015 ± 0.0021	0.0035 ± 0.018	-0.004 ± 0.027
4H:VEGFR2	-0.012 ± 0.0071	0 ± 0.017	0.031 ± 0.11	0.003 ± 0.013	-0.03 ± 0.059	-0.02 ± 0.073	0.024 ± 0.047	-0.061 ± 0.023	-0.032 ± 0.013	-0.0255 ± 0.0021	0.0185 ± 0.019	0.014 ± 0.0085	0.0265 ± 0.0078	0.012 ± 0.05	0.025 ± 0.0057	0.0225 ± 0.03	-0.0215 ± 0.012	-0.101 ± 0.0064	-0.026 ± 0.021
BE3C:Keratin 8/18	-0.0125 ± 0.011	0.019 ± 0.021	0.011 ± 0.047	0.0095 ± 0.015	0.0065 ± 0.023	-0.0345 ± 0.012	-0.302 ± 0.0071	0.002 ± 0.018	-0.0155 ± 0.013	0.002 ± 0.02	-0.0025 ± 0.0021	0.003 ± 0.0028	-0.106 ± 0.05	-0.0115 ± 0.005	-0.0185 ± 0.0092	0.0105 ± 0.043	0.001 ± 0.0071	-0.0185 ± 0.00071	-0.0085 ± 0.019
BE3C:MMP-9	-0.0065 ± 0.0078	0.015 ± 0.014	-0.013 ± 0.0014	-0.0125 ± 0.04	0.0105 ± 0.005	-0.0785 ± 0.013	-0.302 ± 0.041	-0.014 ± 0.0099	-0.01 ± 0.0057	0.008 ± 0.033	-0.018 ± 0.0042	0.0275 ± 0.0078	-0.35 ± 0.037	-0.024 ± 0.021	-0.0235 ± 0.015	0.0015 ± 0.029	-0.004 ± 0.021	-0.0045 ± 0.0078	0.016 ± 0.021
BE3C:PAI-I	0.0035 ± 0.0092	0.0075 ± 0.005	0.0165 ± 0.025	-0.0925 ± 0.036	-0.106 ± 0.022	-0.26 ± 0.058	-0.406 ± 0.013	-0.0205 ± 0.0021	-0.017 ± 0.0042	0.0115 ± 0.0021	0.0265 ± 0.011	0.0055 ± 0.019	-0.416 ± 0.054	-0.0145 ± 0.0021	-0.0295 ± 0.025	0 ± 0.059	-0.005 ± 0.0014	0.011 ± 0.0085	0.0435 ± 0.016
BE3C:SRB	-0.0035 ± 0.00071	0.0015 ± 0.00071	0.007	0.0005 ± 0.0021	0 ± 0.0014	-0.0555 ± 0.028	-0.368 ± 0.069	-0.002 ± 0.0014	-0.006 ± 0.0028	0.0075 ± 0.0021	-0.001 ± 0.0014	-0.049 ± 0.0057	-0.659 ± 0.019	-0.0005 ± 0.0021	-0.0055 ± 0.005	0.006 ± 0.011	-0.005 ± 0.0099	-0.001 ± 0.0028	0.0055 ± 0.011
BE3C:tPA	-0.0115 ± 0.06	-0.0245 ± 0.03	-0.0375 ± 0.026	0.12 ± 0.017	0.186 ± 0.0028	0.191 ± 0.013	-0.103 ± 0.0057	-0.0205 ± 0.00071	-0.02 ± 0.0057	0.011 ± 0.031	0.01 ± 0.047	0 ± 0.04	-0.359 ± 0.11	-0.0485 ± 0.00071	-0.0395 ± 0.037	-0.011 ± 0.052	-0.0025 ± 0.016	0.029 ± 0.02	0.05 ± 0.025
BE3C:uPA	-0.022 ± 0.014	-0.004 ± 0.0042	-0.0065 ± 0.00071	-0.027 ± 0.0057	-0.032 ± 0.034	-0.019 ± 0.017	-0.051 ± 0.027	-0.0055 ± 0.0078	-0.013 ± 0.0014	-0.004	-0.006 ± 0.0028	0.0085 ± 0.0064	-0.133 ± 0.059	-0.0155 ± 0.00071	-0.0055 ± 0.0078	0.0005 ± 0.021	-0.008 ± 0.0099	-0.005 ± 0.0028	0.01 ± 0.0057
CASM3C:CCL2/MCP-1	-0.007 ± 0.023	-0.0275 ± 0.00071	0.004 ± 0.014	-0.022 ± 0.023	-0.024 ± 0.0028	0.0115 ± 0.026	0.0095 ± 0.0064	-0.0085 ± 0.0064	-0.014 ± 0.011	0.012 ± 0.047	-0.0025 ± 0.0078	-0.0115 ± 0.0092	0.031 ± 0.044	-0.0095 ± 0.0078	-0.0085 ± 0.0078	0.017 ± 0.02	-0.0125 ± 0.011	-0.01	0.0225 ± 0.032
CASM3C:CD87/uPAR	-0.023 ± 0.0057	-0.017 ± 0.035	-0.019 ± 0.017	0.0455 ± 0.021	-0.0065 ± 0.03	0.042 ± 0.0042	0.0075 ± 0.015	0.003 ± 0.021	0.0125 ± 0.011	-0.0195 ± 0.035	-0.0235 ± 0.054	-0.0285 ± 0.054	-0.0155 ± 0.069	-0.023 ± 0.051	-0.0495 ± 0.077	-0.057 ± 0.041	0.003 ± 0.035	0.0145 ± 0.019	-0.0125 ± 0.012
CASM3C:CD106/VCAM-1	-0.015 ± 0.035	-0.031 ± 0.014	0.0055 ± 0.013	-0.043 ± 0.037	-0.0795 ± 0.026	-0.158 ± 0.037	-0.153 ± 0.045	-0.0015 ± 0.023	-0.012 ± 0.025	-0.0015 ± 0.021	-0.0395 ± 0.0092	-0.0455 ± 0.015	-0.0235 ± 0.032	-0.0525 ± 0.005	-0.04 ± 0.018	-0.0275 ± 0.033	-0.008 ± 0.011	-0.0325 ± 0.022	-0.0605 ± 0.026
CASM3C:CD141/Thrombomodulin	-0.0145 ± 0.047	-0.0265 ± 0.018	0.001 ± 0.035	0.0625 ± 0.015	0.034 ± 0.0028	0.03 ± 0.038	0.166 ± 0.0092	0.009 ± 0.041	0 ± 0.05	0.0135 ± 0.037	-0.019 ± 0.011	0.012 ± 0.017	0.03 ± 0.0071	0.0225 ± 0.0064	0.0095 ± 0.019	0.007 ± 0.02	-0.015 ± 0.037	-0.0175 ± 0.063	-0.033 ± 0.021
CASM3C:CD142/Tissue Factor	-0.0165 ± 0.016	-0.037 ± 0.027	-0.039 ± 0.02	0.044 ± 0.025	-0.0045 ± 0.021	0.0295 ± 0.036	0.082 ± 0.016	-0.0025 ± 0.016	-0.0125 ± 0.0035	0.008 ± 0.024	-0.0095 ± 0.04	-0.0455 ± 0.037	-0.0595 ± 0.032	0.0005 ± 0.028	-0.006 ± 0.025	-0.034 ± 0.014	-0.01 ± 0.013	-0.0345 ± 0.021	0.007 ± 0.02
CASM3C:CXCL8/IL-8	0 ± 0.017	0.0005 ± 0.0078	-0.0035 ± 0.00071	0.025 ± 0.016	0.01 ± 0.037	0.03 ± 0.021	0.064 ± 0.034	0.028 ± 0.023	-0.0055 ± 0.021	0.0015 ± 0.021	-0.021 ± 0.0057	-0.0125 ± 0.013	0.015 ± 0.035	-0.007 ± 0.035	0.005 ± 0.0028	-0.005 ± 0.031	0.007 ± 0.0042	-0.016 ± 0.011	0.0185 ± 0.019
CASM3C:CXCL9/MIG	-0.01 ± 0.011	-0.0145 ± 0.023	0.004 ± 0.013	0.0195 ± 0.036	-0.0105 ± 0.011	0.0285 ± 0.043	0.0875 ± 0.043	-0.03 ± 0.011	-0.0225 ± 0.016	0.009 ± 0.024	0.0015 ± 0.052	0.013 ± 0.035	0.0735 ± 0.033	0.0115 ± 0.053	-0.004 ± 0.014	0.0215 ± 0.037	-0.0445 ± 0.0078	-0.0315 ± 0.0035	-0.015 ± 0.045
